{
  "source": "patent US20040106148A1",
  "about": "“Polypeptides” (priority 2000, published 2004)",
  "assay_in_all_cases": "Protein-lipid overlay",
  "type_in_all_cases": "binding",
  "key": {"[1]": {"target": "human TAPP1, full length, mutant R212L (Arg212 to Leu), GST fusion (Homo sapiens, UniProt Q9HB21, R211L)", "sequence (Q9HB21 whole entry R211L, the tested form may be a part)": "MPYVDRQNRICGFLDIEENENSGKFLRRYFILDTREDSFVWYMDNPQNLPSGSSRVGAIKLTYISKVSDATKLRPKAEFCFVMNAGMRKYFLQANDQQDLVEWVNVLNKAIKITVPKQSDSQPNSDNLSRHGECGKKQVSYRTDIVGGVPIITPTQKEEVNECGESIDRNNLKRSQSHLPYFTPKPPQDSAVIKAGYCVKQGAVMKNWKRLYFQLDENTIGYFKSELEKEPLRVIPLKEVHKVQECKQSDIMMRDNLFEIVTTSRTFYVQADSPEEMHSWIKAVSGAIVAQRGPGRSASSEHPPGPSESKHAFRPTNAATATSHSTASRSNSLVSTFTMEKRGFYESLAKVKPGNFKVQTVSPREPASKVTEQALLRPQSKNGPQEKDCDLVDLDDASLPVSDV", "conditions": "FIG. 4B", "protocol": "(§1) FIG. 4. Comparison of the phosphoinositide binding properties of the N-terminal and C-terminal PH domains of TAPP1 and TAPP2. The ability of wild type and mutant forms of full length (FL) and isolated N-terminal (NT) and C-terminal (CT) PH domains of TAPP1 and TAPP2 GST-fusion proteins to interact with phosphoinositides were analysed using a protein-lipid overlay. Serial dilutions of the indicated phosphoinositides (100 pmol, 50 pmol, 25 pmol, 12.5 pmol, 6.3 pmol, 3.1 pmol and 1.6 pmol) were spotted onto a nitrocellulose membrane which was then incubated with the indicated purified GST fusion proteins. The membranes were washed and the GST-fusion proteins bound to the membrane by virtue of their interactions with lipid were detected using a GST antibody. A representative experiment of three is shown. The isolated N-terminal PH domain of human TAPP1 comprises residues 1 to 147, the isolated C-terminal PH domain of human TAPP1 comprises residues 95 to 404, the isolated N-terminal PH domain of mouse TAPP2 comprises residues 1 to 131 and the isolated C-terminal PH of mouse TAPP2 comprises residues 174 to 425.\n(§2) Protein-Lipid overlay. To assess the phosphoinositide binding properties of each PH domain, a protein-lipid overlay assay was performed using the GST fusion proteins as described previously. Briefly, 1 μl of lipid solution containing 1-100 pmol of phospholipids dissolved in a mixture of choroform:methanol:water (1:2:0.8) was spotted onto Hybond-C extra membrane and allowed to dry at room temperature for 1 h. The membrane was blocked in 3% (by mass) fatty acid-free BSA in TBST (50 mM Tris/HCl pH 7.5, 150 mM NaCl and 0.1% Tween-20 (by vol) for lh. The membrane was then incubated overnight at 4° C. with gentle agitation in the same solution containing 0.2 μg/ml of the indicated GST fusion protein. The membranes were washed 6 times over 30 min in TBST and then incubated for 1 h with 1/1000 dilution of anti-GST monoclonal antibody (Sigma). The membranes were washed as before, then incubated for 1 h with 1/5000 dilution of anti-mouse-HRP conjugate (Pierce). Finally, the membranes were washed 12 times over 1 h in TBST and the GST-fusion protein bound to the membrane by virtue of its interaction with phospholipid was detected by enhanced chemiluminescence."}, "[2]": {"target": "mouse TAPP2, full length, wild type, GST fusion (Mus musculus, UniProt Q9ERS5)", "sequence (Q9ERS5 whole entry, the tested form may be a part)": "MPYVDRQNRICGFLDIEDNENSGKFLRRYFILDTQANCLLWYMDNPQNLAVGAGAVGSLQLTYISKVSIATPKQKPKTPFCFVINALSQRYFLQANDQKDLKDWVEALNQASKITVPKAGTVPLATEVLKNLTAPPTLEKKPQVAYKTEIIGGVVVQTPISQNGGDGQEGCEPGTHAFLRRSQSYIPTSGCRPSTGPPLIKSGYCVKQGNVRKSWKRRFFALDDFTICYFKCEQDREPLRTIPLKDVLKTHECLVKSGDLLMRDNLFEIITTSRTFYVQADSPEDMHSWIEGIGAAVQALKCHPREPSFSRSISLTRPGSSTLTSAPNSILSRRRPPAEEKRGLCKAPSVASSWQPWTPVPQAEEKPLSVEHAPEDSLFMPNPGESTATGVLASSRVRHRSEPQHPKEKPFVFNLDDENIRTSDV", "conditions": "FIG. 4C and Table 2", "protocol": "as §1, §2"}, "[3]": {"target": "human TAPP1, full length, mutant R28L (Arg28 to Leu), GST fusion (Homo sapiens, UniProt Q9HB21, R28L)", "sequence (Q9HB21 whole entry R28L, the tested form may be a part)": "as the sequence (Q9HB21 whole entry R211L, the tested form may be a part) above, with R28L, L211R counted along it", "conditions": "FIG. 4B", "protocol": "as §1, §2"}, "[4]": {"target": "human TAPP1 C-terminal PH domain, mutant R212L (Arg212 to Leu), GST fusion (Homo sapiens, UniProt Q9HB21, R211L)", "sequence (Q9HB21 95-404 R211L)": "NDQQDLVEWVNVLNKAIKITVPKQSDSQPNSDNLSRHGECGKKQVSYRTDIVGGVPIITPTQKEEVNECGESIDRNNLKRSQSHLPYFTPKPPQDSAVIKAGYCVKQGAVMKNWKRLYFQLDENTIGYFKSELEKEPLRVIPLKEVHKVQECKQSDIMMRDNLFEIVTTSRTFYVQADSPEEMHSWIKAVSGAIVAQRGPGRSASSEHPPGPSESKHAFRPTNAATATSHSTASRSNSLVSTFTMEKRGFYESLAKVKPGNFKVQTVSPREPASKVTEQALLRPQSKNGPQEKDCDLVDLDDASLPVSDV", "conditions": "FIG. 4B", "protocol": "as §1, §2"}, "[5]": {"target": "human TAPP1, full length, wild type, GST fusion (Homo sapiens, UniProt Q9HB21)", "sequence (Q9HB21 whole entry, the tested form may be a part)": "as the sequence (Q9HB21 whole entry R211L, the tested form may be a part) above, with L211R counted along it", "conditions": "FIG. 4A and Table 2", "protocol": "as §1, §2"}, "[6]": {"target": "human TAPP1 C-terminal PH domain, mutant W281L (Trp281 to Leu), GST fusion (Homo sapiens, UniProt Q9HB21, W280L)", "sequence (Q9HB21 95-404 W280L)": "as the sequence (Q9HB21 95-404 R211L) above, with L117R, W186L counted along it", "conditions": "FIG. 4B", "protocol": "as §1, §2"}},
  "data": [
    {"smiles": "CCCCCCCCCCCCCCCC(=O)OC[C@H](COP(=O)(O)O[C@H]1[C@H](O)[C@@H](O)[C@H](OP(=O)(O)O)[C@@H](OP(=O)(O)O)[C@H]1O)OC(=O)CCCCCCCCCCCCCCC", "note": "[PtdIns(3,4)P2]", "values": [
      {"measurement": "effect of mutation on interaction", "setting": "[1]", "value": "abolished the interaction"},
      {"measurement": "phosphoinositide binding", "setting": "[2]", "value": "interacted specifically"},
      {"measurement": "effect of mutation on interaction", "setting": "[3]", "value": "did not affect the interaction"},
      {"measurement": "effect of mutation on interaction", "setting": "[4]", "value": "abolished the interaction"},
      {"measurement": "phosphoinositide binding", "setting": "[5]", "value": "interacted specifically"},
      {"measurement": "effect of mutation on interaction", "setting": "[6]", "value": "abolished the interaction"}
    ]}
  ]
}
